One block for each compound: values may come before it.
Assays:
Bile acid receptor [1] = molecular target: T1, Bile acid receptor (Homo sapiens, UniProt Q96RI1); experiment: Agonist activity at FXR in human HeLa cells by Dual-Glo luciferase assay; format: cell-based
T1 sequence (Q96RI1 whole entry): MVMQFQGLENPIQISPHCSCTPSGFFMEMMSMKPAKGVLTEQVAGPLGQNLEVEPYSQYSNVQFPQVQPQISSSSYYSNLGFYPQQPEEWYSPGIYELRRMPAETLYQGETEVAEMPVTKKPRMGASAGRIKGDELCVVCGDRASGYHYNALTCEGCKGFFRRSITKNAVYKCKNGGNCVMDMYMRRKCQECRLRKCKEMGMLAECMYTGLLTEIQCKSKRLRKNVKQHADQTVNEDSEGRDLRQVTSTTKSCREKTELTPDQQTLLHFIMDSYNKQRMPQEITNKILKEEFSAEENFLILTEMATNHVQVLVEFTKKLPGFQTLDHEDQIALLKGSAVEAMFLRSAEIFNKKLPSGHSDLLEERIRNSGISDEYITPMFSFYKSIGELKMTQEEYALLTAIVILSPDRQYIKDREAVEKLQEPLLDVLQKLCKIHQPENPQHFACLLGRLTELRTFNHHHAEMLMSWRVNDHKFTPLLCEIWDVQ

Bile acid receptor [2] = molecular target: T1, Bile acid receptor; experiment: Agonist activity at FXR (unknown origin) incubated for 180 mins by TR-FRET assay
Bile acid receptor [3] = molecular target: T1, Bile acid receptor; experiment: Agonist activity at human GST-tagged FXR incubated for 1 hrs by alphascreen assay
Bile acid receptor [4] = molecular target: T1, Bile acid receptor; experiment: Agonist activity at FXR (unknown origin)
[5] = Oral bioavailability in Sprague-Dawley rat at 5 mg/kg administered via gavage by LC-MS/MS analysis; format: ADME, organism-based; details: in vivo
Bile acid receptor [6] = molecular target: T1, Bile acid receptor; experiment: Agonist activity at FXR in HEK293T cells by steady-glo luciferase assay; format: cell-based
[7] = molecular target: Voltage-gated inwardly rectifying potassium channel KCNH2 (Homo sapiens, UniProt Q12809); experiment: Inhibition of hERG; format: toxicity
Voltage-gated inwardly rectifying potassium channel KCNH2, sequence (Q12809 whole entry): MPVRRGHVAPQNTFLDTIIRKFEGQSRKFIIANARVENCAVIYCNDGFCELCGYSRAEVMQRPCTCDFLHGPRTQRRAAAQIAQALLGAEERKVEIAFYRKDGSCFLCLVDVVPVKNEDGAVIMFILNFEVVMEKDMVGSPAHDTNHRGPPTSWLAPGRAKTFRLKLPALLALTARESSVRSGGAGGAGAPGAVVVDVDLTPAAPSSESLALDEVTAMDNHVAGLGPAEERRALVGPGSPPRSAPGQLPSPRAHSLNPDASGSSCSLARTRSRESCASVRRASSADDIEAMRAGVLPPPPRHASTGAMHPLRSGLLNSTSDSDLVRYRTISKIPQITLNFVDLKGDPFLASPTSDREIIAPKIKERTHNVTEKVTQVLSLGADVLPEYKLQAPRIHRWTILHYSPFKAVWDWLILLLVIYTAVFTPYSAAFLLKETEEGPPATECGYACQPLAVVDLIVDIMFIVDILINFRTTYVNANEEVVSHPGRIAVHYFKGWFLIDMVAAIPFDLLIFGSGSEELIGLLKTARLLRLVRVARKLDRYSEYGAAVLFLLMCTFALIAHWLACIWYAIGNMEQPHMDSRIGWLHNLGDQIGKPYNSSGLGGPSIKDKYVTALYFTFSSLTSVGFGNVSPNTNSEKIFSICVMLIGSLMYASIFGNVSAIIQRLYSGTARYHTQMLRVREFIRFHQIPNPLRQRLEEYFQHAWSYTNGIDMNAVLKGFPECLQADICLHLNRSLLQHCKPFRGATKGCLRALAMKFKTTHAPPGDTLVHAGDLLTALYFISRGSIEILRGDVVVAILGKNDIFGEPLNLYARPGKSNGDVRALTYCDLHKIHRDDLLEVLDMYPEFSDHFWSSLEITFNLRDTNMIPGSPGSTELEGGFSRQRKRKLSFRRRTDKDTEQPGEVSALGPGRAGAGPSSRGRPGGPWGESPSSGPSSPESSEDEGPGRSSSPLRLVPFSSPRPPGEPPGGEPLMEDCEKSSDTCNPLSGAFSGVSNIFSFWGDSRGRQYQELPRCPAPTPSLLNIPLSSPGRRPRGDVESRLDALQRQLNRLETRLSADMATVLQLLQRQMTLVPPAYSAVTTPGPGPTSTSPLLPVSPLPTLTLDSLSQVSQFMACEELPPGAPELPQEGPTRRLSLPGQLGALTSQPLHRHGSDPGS

Bile acid receptor [8] = molecular target: T1, Bile acid receptor; experiment: Agonist activity at human FXR incubated for 24 hrs by luciferase reporter assay
[9] = molecular target: Bile acid receptor (Homo sapiens) (UniProt Q96RI1); experiment: Agonist activity at FXR in human HepG2 cells at 3 uM relative to control; details: filed as agonist
[10] = molecular target: Bile acid receptor (Homo sapiens) (UniProt Q96RI1); experiment: Agonist activity at FXR in human HepG2 cells coexpressing BSEP at 0.3 uM relative to control; details: filed as agonist
[11] = Stability in human plasma assessed as half life; format: ADME, cell-free
Bile acid receptor [12] = molecular target: T1, Bile acid receptor; experiment: Agonist activity at FXR in human HeLa cells incubated for 24 hrs by Dual-Glo luciferase assay; format: cell-based; details: hela
[13] = molecular target: T2, Bifunctional epoxide hydrolase 2 (Homo sapiens, UniProt P34913); experiment: Inhibition of sEH (unknown origin)
T2 sequence (P34913 whole entry): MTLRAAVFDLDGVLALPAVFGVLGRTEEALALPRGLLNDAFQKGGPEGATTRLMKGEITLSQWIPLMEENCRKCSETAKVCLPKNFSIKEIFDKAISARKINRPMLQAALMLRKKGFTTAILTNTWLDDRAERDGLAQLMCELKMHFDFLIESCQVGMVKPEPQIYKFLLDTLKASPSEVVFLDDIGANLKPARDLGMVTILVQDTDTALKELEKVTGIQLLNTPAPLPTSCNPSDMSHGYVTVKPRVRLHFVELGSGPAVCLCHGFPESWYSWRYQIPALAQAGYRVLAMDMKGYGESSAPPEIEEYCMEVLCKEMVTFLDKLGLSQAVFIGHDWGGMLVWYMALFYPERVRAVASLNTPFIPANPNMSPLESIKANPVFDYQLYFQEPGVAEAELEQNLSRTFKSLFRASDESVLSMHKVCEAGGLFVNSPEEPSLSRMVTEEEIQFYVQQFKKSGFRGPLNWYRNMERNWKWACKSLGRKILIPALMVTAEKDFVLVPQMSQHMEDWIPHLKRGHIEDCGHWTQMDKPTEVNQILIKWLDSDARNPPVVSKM

[14] = molecular target: T3, Bile acid receptor (Homo sapiens) (UniProt Q96RI1); experiment: Agonist activity at human FXR expressed in CHO cells assessed as maximum efficacy incubated for 22 hrs by luciferase reporter assay relative to control; format: cell-based
T3 sequence (whole entry): T1 sequence (Q96RI1 whole entry)

Bile acid receptor [15] = molecular target: T1, Bile acid receptor; experiment: Agonist activity at human FXR in expressed in CHO cells by luciferase reporter assay; format: cell-based
Mus musculus [16] = experiment: Anti-NASH activity in nonalcoholic steatohepatitis C57BL/6 mouse model assessed as decrease in level of serum AST 10 mg/kg, iv relative to control; format: functional; parameters: scale not given: the % may be the effect or the level left
Mus musculus [17] = experiment: Anti-NASH activity in nonalcoholic steatohepatitis C57BL/6 mouse model assessed as decrease in level of serum ALT 10 mg/kg, iv relative to control; format: functional; parameters: scale not given: the % may be the effect or the level left
Bile acid receptor [18] = molecular target: T1, Bile acid receptor; experiment: Agonist activity at human FXR

SMILES: O=C(O)c1cccc(NC(=O)c2ccc(Oc3ccccc3)cc2)c1
EC50 (Bile acid receptor [1]): 10 nM

SMILES: CC[C@H]1[C@@H](O)[C@@H]2[C@H](CC[C@]3(C)[C@@H]([C@H](C)CCNC(=O)NS(=O)(=O)c4ccc(C)cc4)CC[C@@H]23)[C@@]2(C)CC[C@@H](O)[C@H](F)[C@@H]12
EC50 (Bile acid receptor [8]): 18 nM

SMILES: Cc1ccc(Cl)cc1N1CCN(C(=O)C23CC4CC(CC(C4)C2)C3)CC1
half-life [11]: > 8.33 h

SMILES: Cc1cc(OCc2c(-c3c(Cl)cccc3Cl)noc2C2CC2)ccc1C1=NOC(c2cccc(C(=O)O)c2)C1 (stereo not drawn)
IC50 [7]: > 30000 nM

SMILES: CC(C)(C)c1ccc(C(=O)Nc2ccc3ccn(Cc4ccc(C(=O)O)cc4)c3c2)cc1
EC50 (Bile acid receptor [12]): 3500 nM
IC50 [13]: 2900 nM

SMILES: COc1cc(Cl)cc(N(CC23CCC(c4ccc(OC)c(C#N)c4)(CC2)CC3)C(=O)c2ccncc2C)c1
Emax [14]: 28%

SMILES: CC[C@H]1[C@@H](O)[C@@H]2[C@H](CC[C@]3(C)[C@@H]([C@H](C)COC(=O)NS(=O)(=O)c4ccc(OC(C)C)cc4)CC[C@@H]23)[C@@]2(C)CC[C@@H](O)C[C@@H]12
EC50 (Bile acid receptor [15]): < 1 nM

SMILES: CC(C)n1ncc(-c2c(Cl)cccc2Cl)c1COc1ccc(N(C)Cc2cccc(C(=O)O)c2)c(C(F)(F)F)c1
Activity (Mus musculus [16]): 59%
Activity (Mus musculus [17]): 63%

SMILES: COc1cc(C(=O)O)ccc1Cn1ccc2ccc(NC(=O)c3ccc(C(C)(C)C)cc3)cc21
EC50 (Bile acid receptor [12]): 260 nM
IC50 [13]: 1700 nM

The next lines start with results.

EC50 (Bile acid receptor [1]): 9.1 nM
SMILES: O=C(O)c1cccc(NC(=O)c2ccc(OCc3ccccc3)cc2)c1

EC50 (Bile acid receptor [2]): 1.7 nM
SMILES: O=C(O)CNC(=O)c1ccc(N2CCC3(CC2)CC(OCc2c(-c4ccccc4OC(F)(F)F)noc2C2CC2)CO3)nc1 (stereo not drawn)

EC50 (Bile acid receptor [3]): 20 nM
SMILES: O=C(O)c1ccc(N2C(=O)CCc3cc(OCc4c(-c5c(Cl)cccc5Cl)noc4C4CC4)ccc32)nc1

EC50 (Bile acid receptor [4]): 7.7 nM
SMILES: O=C(O)c1cc(F)c2nc(N3[C@@H]4CC[C@H]3C[C@@H](OCc3c(-c5c(Cl)cccc5Cl)noc3C3CC3)C4)sc2c1

bioavailability [5]: 71.3%
SMILES: O=C(O)c1ccc2c(c1)Oc1ccc(OCc3c(-c4ccccc4OC(F)(F)F)noc3C3CC3)nc1C1(CC1)C2

EC50 (Bile acid receptor [6]): 5 nM
SMILES: Cc1cc(OCc2c(-c3c(Cl)cccc3Cl)noc2C2CC2)ccc1C1=NOC(c2ccc(C(=O)O)nc2)C1 (stereo not drawn)
IC50 [7]: > 30000 nM

EC50 (Bile acid receptor [4]): < 50 nM
SMILES: Cc1cc(NS(=O)(=O)N2[C@@H]3CC[C@H]2C[C@@H](OCc2c(-c4c(Cl)cccc4Cl)noc2C2CC2)C3)ccc1C(=O)O

Activity [9]: 100%
SMILES: O=C(O)c1ccc([C@@H]2C[C@H]2c2ccc(OCc3c(-c4c(Cl)cccc4Cl)noc3C3CC3)cc2Cl)cc1
Activity [10]: 60%

Activity [9]: 88%
SMILES: C[C@H]1CC(OCc2c(-c3c(Cl)cccc3Cl)noc2C2CC2)C[C@H](C)N1c1nc2ccc(C(=O)O)cc2s1 (stereo partly drawn)
Activity [10]: 100%

Activity [9]: 185%
SMILES: O=C(O)c1ccc2nc(N3C[C@@H]4C[C@H]3C[C@H]4OCc3c(-c4c(Cl)cccc4Cl)noc3C3CC3)sc2c1
Activity [10]: 166%

EC50 (Bile acid receptor [4]): < 50 nM
SMILES: O=C(O)c1ccc(-c2nc(N3[C@@H]4CC[C@H]3C[C@@H](OCc3c(-c5c(Cl)cccc5Cl)noc3C3CC3)C4)no2)cc1F

EC50 (Bile acid receptor [18]): < 30 nM
SMILES: CC(C)Oc1cc(C(=O)O)cc2sc(O[C@@H]3CO[C@H]4[C@@H]3OC[C@H]4OCc3c(-c4ccccc4OC(F)(F)F)noc3C3CC3)nc12
